Data from ChEMBL document CHEMBL4411309, “Discovery of 2-substituted-N-(3-(3,4-dihydroisoquinolin-2(1H)-yl)-2-hydroxypropyl)-1,2,3,4-tetrahydroisoquinoline-6-carboxamide as potent and selective protein arginine methyltransferases 5 inhibitors: Design, synthesis and biological evaluation” (Eur J Med Chem, 2019).
pIC50: −log10 of the molar value.

Assays:
[1] = Tmax in Sprague-Dawley rat at 10 mg/kg, po administered via gavage by LC-MS/MS analysis; format: ADME, organism-based; details: in vivo
[2] = Cmax in Sprague-Dawley rat at 10 mg/kg, po administered via gavage by LC-MS/MS analysis; format: ADME, organism-based; set-up: dose 10 mg/kg, route oral; details: in vivo
[3] = AUC in Sprague-Dawley rat at 10 mg/kg, po administered via gavage by LC-MS/MS analysis; format: ADME, organism-based; details: in vivo
[4] = Elimination half life in Sprague-Dawley rat at 10 mg/kg, po administered via gavage by LC-MS/MS analysis; format: ADME, organism-based; details: in vivo, read-out: beta t1/2 (converted)
MV4-11 [5] = experiment: Antitumor activity against human MV4-11 cells xenografted in Balb/c nude mouse assessed as tumor growth inhibition at 100 mg/kg, po administered once daily for 30 days relative to control; format: functional; details: MV4-11, po, 720 h, read-out: TGI
[6] = Aqueous solubility of the compound; format: physicochemical; details: buffer
PRMT5/MEP50 complex = PRMT5/MEP50 complex (Homo sapiens, UniProt O14744); experiment: Inhibition of recombinant human N-terminal FLAG-tagged PRMT5 (2 to end residues)/human N-terminal His-tagged MEP50 (2 to end residues) expressed in HEK293F cells using H4 peptide as substrate preincubated for 15 mins followed by substrate and [3H]SAM addition and measured after 1 hr by scintillation counting method
[7] = molecular target: T1, Protein arginine N-methyltransferase 7 (Homo sapiens, UniProt Q9NVM4); experiment: Inhibition of recombinant full length human N-terminal FLAG-tagged PRMT7 expressed in Sf9 insect cells preincubated for 15 mins followed by substrate and [3H]SAM addition and measured after 240 mins by microbeta method
T1 sequence (Q9NVM4 whole entry): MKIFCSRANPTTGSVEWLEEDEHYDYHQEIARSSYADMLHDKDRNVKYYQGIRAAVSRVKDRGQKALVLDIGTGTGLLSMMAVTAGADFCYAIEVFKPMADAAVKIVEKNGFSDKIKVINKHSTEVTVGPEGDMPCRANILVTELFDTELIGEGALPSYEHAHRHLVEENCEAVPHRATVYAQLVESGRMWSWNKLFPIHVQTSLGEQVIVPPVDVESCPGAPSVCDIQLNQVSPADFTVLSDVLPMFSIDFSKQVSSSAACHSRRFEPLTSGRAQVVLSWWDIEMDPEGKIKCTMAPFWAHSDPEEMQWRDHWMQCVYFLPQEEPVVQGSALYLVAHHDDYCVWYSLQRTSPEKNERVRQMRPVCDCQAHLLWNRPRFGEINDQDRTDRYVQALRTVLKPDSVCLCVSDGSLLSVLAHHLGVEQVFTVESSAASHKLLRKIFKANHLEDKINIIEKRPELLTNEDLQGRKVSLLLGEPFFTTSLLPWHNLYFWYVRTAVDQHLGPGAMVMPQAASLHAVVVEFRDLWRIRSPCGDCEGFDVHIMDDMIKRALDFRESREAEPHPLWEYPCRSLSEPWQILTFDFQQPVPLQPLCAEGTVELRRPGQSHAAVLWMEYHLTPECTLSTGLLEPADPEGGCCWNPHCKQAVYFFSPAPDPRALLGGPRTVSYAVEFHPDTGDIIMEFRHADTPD

[8] = molecular target: Protein arginine N-methyltransferase 1 (Homo sapiens, UniProt Q99873); experiment: Inhibition of human N-terminal GST-tagged PRMT1 (2 to end residues) expressed in baculovirus infected Sf9 insect cells preincubated for 15 mins followed by substrate and [3H]SAM addition and measured after 1 hr by microbeta method
[9] = molecular target: Protein arginine N-methyltransferase 8 (Homo sapiens, UniProt Q9NR22); experiment: Inhibition of human N-terminal His/FLAG-tagged PRMT8 (61 to 394 residues) expressed in baculovirus infected Sf9 insect cells preincubated for 15 mins followed by substrate addition and measured after 1 hr by Alphalisa assay
[10] = molecular target: T2, Histone-arginine methyltransferase CARM1 (Homo sapiens, UniProt Q86X55); experiment: Inhibition of human N-terminal FLAG-tagged PRMT4 (2 to end residues) expressed in FreeStyle 293-F cells preincubated for 15 mins followed by substrate addition and measured after 1 hr by Alphalisa assay; format: cell-based
T2 sequence (Q86X55 whole entry): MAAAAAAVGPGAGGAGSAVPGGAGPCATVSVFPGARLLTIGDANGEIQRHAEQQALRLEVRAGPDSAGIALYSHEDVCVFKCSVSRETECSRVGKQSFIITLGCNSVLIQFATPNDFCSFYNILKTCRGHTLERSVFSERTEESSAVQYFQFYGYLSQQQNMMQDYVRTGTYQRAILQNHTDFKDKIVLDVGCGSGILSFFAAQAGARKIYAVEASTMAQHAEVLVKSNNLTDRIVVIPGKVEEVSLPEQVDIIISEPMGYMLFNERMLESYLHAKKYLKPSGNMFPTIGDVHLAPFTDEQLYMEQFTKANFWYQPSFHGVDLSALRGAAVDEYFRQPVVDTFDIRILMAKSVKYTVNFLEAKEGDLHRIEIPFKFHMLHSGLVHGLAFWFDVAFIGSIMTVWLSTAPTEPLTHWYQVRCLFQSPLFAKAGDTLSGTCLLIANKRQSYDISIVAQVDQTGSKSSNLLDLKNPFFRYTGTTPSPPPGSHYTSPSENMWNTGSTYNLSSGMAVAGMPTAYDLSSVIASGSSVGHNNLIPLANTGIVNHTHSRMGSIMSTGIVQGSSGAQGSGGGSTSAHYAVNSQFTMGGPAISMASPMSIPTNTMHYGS

[11] = molecular target: Protein arginine N-methyltransferase 6 (Homo sapiens, UniProt Q96LA8); experiment: Inhibition of human N-terminal His-tagged PRMT6 (2 to 375 residues) expressed in Escherichia coli preincubated for 15 mins followed by substrate addition and measured after 1 hr by Alphalisa assay
MV4-11 [12] = experiment: Antiproliferative activity against human MV4-11 cells supplemented with fresh medium containing compound every 4 days measured on day 12 by Celltiter-glo luminescent cell viability assay; format: functional
MV4-11 [13] = experiment: Antiproliferative activity against human MV4-11 cells supplemented with fresh medium containing compound every 4 days measured on day 8 by Celltiter-glo luminescent cell viability assay; format: functional
[14] = molecular target: Protein arginine N-methyltransferase 3 (Homo sapiens, UniProt O60678); experiment: Inhibition of human N-terminal GST-tagged PRMT3 (2 to end residues) expressed in Escherichia coli preincubated for 15 mins followed by substrate addition and measured after 1 hr by Alphalisa assay
Protein arginine N-methyltransferase 3, sequence (O60678 whole entry): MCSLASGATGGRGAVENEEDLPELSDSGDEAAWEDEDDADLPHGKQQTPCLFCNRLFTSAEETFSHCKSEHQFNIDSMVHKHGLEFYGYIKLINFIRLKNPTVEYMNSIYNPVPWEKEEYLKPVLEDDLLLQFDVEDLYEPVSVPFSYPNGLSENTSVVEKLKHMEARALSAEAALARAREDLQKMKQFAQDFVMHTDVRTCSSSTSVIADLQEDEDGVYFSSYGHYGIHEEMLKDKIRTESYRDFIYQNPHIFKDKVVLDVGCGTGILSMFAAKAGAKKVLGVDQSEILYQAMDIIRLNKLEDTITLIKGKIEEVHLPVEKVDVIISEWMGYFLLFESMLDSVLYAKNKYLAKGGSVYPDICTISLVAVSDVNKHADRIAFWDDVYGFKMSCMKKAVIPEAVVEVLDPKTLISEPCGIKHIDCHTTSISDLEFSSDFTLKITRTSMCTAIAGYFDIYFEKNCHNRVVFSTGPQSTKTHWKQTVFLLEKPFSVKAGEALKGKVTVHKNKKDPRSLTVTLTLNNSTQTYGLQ

Protein arginine N-methyltransferase 1, sequence (Q99873 whole entry, the tested form may be a part): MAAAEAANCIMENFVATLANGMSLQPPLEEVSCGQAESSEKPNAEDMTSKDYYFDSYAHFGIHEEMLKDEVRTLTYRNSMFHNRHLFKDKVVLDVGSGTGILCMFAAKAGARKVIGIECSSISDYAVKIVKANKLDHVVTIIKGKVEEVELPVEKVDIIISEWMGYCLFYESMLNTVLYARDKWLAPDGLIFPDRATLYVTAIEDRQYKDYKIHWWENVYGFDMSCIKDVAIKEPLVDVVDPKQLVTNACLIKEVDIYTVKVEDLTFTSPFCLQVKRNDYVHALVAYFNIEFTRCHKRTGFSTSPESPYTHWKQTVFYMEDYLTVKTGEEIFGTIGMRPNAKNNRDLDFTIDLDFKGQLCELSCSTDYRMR
PRMT5/MEP50 complex, sequence (O14744 whole entry): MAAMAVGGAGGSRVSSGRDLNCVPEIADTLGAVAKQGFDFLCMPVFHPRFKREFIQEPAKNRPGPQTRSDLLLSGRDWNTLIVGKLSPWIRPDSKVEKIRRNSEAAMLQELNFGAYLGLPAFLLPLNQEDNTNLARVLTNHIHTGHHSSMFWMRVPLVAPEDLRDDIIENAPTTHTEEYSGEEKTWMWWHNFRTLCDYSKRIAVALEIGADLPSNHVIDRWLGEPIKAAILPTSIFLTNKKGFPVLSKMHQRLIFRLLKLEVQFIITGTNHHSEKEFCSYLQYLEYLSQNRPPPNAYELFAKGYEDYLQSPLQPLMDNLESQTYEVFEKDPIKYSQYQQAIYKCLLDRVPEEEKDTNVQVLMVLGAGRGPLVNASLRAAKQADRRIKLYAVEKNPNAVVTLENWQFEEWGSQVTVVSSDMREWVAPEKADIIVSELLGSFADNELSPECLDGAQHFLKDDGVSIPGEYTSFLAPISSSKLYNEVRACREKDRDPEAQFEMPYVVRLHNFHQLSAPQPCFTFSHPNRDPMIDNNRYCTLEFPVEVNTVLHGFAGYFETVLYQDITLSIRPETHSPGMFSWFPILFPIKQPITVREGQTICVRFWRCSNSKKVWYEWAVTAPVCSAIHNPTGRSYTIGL
PRMT5/MEP50 complex, sequence (Q9BQA1 whole entry, further chain): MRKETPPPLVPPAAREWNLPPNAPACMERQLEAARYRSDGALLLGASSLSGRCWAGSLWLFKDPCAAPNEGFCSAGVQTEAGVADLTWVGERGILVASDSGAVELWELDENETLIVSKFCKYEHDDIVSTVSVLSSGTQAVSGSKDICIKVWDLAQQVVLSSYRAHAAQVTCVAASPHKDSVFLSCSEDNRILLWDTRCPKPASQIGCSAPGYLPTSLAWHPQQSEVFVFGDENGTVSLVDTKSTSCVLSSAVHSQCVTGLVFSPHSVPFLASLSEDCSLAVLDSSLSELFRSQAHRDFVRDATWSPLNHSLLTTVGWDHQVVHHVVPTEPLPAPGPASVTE
Protein arginine N-methyltransferase 6, sequence (Q96LA8 whole entry, the tested form may be a part): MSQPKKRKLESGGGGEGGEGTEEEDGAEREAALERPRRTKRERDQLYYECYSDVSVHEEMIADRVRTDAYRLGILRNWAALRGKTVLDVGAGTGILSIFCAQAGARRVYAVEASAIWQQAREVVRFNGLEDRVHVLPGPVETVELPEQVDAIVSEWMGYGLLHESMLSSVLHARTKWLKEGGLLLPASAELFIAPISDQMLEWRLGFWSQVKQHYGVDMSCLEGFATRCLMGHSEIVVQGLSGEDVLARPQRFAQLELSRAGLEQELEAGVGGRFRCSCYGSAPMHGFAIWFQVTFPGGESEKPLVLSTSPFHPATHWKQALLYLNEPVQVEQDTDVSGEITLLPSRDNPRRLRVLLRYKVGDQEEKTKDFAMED
Protein arginine N-methyltransferase 8, sequence (Q9NR22 whole entry, the tested form may be a part): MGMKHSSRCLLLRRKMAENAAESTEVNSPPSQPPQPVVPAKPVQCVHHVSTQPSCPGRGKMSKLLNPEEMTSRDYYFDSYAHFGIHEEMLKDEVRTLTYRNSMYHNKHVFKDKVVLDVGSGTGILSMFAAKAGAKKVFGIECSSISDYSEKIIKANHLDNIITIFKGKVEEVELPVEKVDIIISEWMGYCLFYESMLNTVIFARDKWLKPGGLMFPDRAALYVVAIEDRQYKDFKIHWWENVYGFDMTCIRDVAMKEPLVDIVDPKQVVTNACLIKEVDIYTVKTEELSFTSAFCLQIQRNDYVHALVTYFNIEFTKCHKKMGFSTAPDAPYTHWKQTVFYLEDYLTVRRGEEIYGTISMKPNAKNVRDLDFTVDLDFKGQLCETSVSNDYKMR

With `Cl.O=C(NC[C@H](O)CN1CCc2ccccc2C1)c1ccc2c(c1)CCN(C(=O)c1ccc(Br)cc1)C2` the Tmax [1] was 0.583 h, the Cmax [2] was 32 ng/mL and the AUC [3] was 168 ng·h/mL. The half-life [4] was 4.6 h, the inhibition in vivo at 100 mg/kg (MV4-11 [5]) was 54% and the solubility [6] was “Soluble”.
In the case of `O=C(NC[C@H](O)CN1CCc2ccccc2C1)c1ccc2c(c1)CCN(C(=O)c1ccc(Br)cc1)C2`, the pIC50 (PRMT5/MEP50 complex) was 8.07, the pIC50 [7] was under 4.00 and the pIC50 [8] was under 4.00. The pIC50 [9] was under 4.00, the pIC50 [10] was under 4.00 and the pIC50 [11] was under 4.00. The GI50 (MV4-11 [12]) was 0.018 µM, the GI50 (MV4-11 [13]) was 0.025 µM and the solubility [6] was “Insoluble”. The pIC50 [14] was under 4.00.
